Experimental data published in PMC11449324, “Functional comparison of human and murine equilibrative nucleobase transporter 1” (PLOS ONE, 2024).

Assays:
[1] = test system: HEK293-hSLC43A3 cells; assay: MTT cell viability assay, HEK293-hSLC43A3; type: cell-based, human; conditions: for EC50: Homo sapiens, first-phase EC50 where biphasic
Procedure: (§1) Transfected-HEK293, MOLT-4, and L1210 cells were seeded into 24-well plates at a density of 1.1x10^5 cells per well in complete culture medium. […] Medium containing no cells was used to determine spontaneous MTT reduction (background). In transfected-HEK293 cells, media was removed via a vacuum-powered aspirator and replaced with 150 μL of Dulbecco’s phosphate buffered saline (DPBS—137 mM NaCl, 2.7 mM KCl, 6.3 mM Na2HPO4, 1.5 mM KH2PO4, 0.5 mM MgCl2, 0.9 mM CaCl2, pH 7.4) containing MTT (1 mg/mL) for 90 minutes at 37°C. In MOLT-4 and L1210, cell suspension was transferred to 1.5 mL microcentrifuge tubes and centrifuged for 10 minutes at 3000 rcf. Following centrifugation, media was removed via gentle pipetting and replaced with 150 μL of DPBS containing MTT (1 mg/mL) for 90 minutes at 37°C. Microcentrifuge tubes were centrifuged again for 15 minutes at 23,500 rcf, and then DPBS containing MTT was removed via a vacuum-powered aspirator. The resultant formazan crystals were solubilized in 500 μL of DMSO and transferred to a 96-well plate in 200 μL duplicates. Absorbance was measured at 570 nm, in a SpectraMax® i3x Multi-Mode Detection Platform (Molecular Devices, San Jose, CA). After background subtraction, % cell viability was calculated as the ratio of absorbance in the presence of test compound to that measured with vehicle alone (X 100).

[2] = test system: HEK293-mslc43a3 cells; assay: MTT cell viability assay, HEK293-mslc43a3; type: cell-based, human; conditions: for EC50: Homo sapiens, first-phase EC50 where biphasic
Procedure: as §1

[3] = test system: HEK293-EV cells; assay: MTT cell viability assay, HEK293-EV; type: cell-based, human; conditions: 48 h; for EC50: Homo sapiens, first-phase EC50 where biphasic
Procedure: as §1

[4] = test system: ENBT1; conditions: previous findings ref 14; cited from earlier work
[5] = substrate: Sc1ncnc2nc[nH]c12; assay: cells, lysate or membranes; conditions: pH 7.4
[6] = substrate: Nc1ncnc2nc[nH]c12; assay: Radiolabelled substrate uptake (oil-stop, 2 s) in HEK293-hSLC43A3 cells; type: cell-based, human; conditions: other: HEK293-hSLC43A3 minus HEK293-EV, 2 seconds, room temperature, 10 μM dipyridamole; pH 7.4
Procedure: (§2) Harvested cells were suspended in nominally sodium-free N-methyl-D-glucamine (NMG) buffer (140 mM NMG, 5 mM KCl, 4.2 mM KHCO3, 0.36 mM K2HPO4, 0.44 mM KH2PO4, 0.5 mM MgCl2, 1.3 mM CaCl2, 10 mM HEPES, pH 7.4), to minimize potential contribution of sodium-dependent concentrative nucleoside transporter-mediated uptake. Additionally, cells were incubated for 15 minutes at room temperature with 10 μM dipyridamole (DY), an equilibrative nucleoside transporter (ENT) inhibitor, to block equilibrative nucleoside transporter–mediated uptake. The substrate uptake assay was initiated by adding 250 μL cell suspension to 250 μL [^3H] labeled substrate, layered over 21:4 silicone:mineral oil (200 μL) in 1.5 mL microcentrifuge tubes (conducted at room temperature). The uptake reaction was terminated after 2 seconds by centrifugation of the cells through the oil layer at ~10,000 g. […] The resulting cell pellet was digested in 250 μL 1 M NaOH overnight (~16 hours), with 220 μL aliquots of digested cells assessed for radioactive content using standard liquid scintillation counting techniques in a Beckman Coulter LS6500 scintillation system (Brea, CA).
(§3) In transfected-HEK293 cell lines, total uptake was defined as uptake of radiolabeled substrate in cells overexpressing recombinant hENBT1 or mENBT1. […] ENBT1-mediated uptake was calculated as total uptake minus the non-mediated uptake. […]

[7] = substrate: Nc1ncnc2nc[nH]c12; assay: Radiolabelled substrate uptake (oil-stop, 2 s) in HEK293-mslc43a3 cells; type: cell-based, mouse; conditions: other: HEK293-mslc43a3 minus HEK293-EV, 2 seconds, room temperature, 10 μM dipyridamole; pH 7.4
Procedure: as §2, §3

[8] = other: HEK293-hSLC43A3 minus HEK293-EV, 2 seconds, room temperature, 10 μM dipyridamole
[9] = other: HEK293-mslc43a3 minus HEK293-EV, 2 seconds, room temperature, 10 μM dipyridamole

CSc1ncnc2nc[nH]c12 [6-MeMP, 6-Methylmercaptopurine]
EC50 ([1]; HEK293-hSLC43A3, 48 h, MTT): 79 ± 2 µM
EC50 ([2]; HEK293-mslc43a3, 48 h, MTT): 42 ± 6 µM
EC50 [3]: 45 ± 7 µM
effect on 6-MP uptake by ENBT1 [4]: inhibited

Nc1nc2nc[nH]c2c(=S)[nH]1 [6-TG, 6-thioguanine]
shift in EC50 (increased sensitivity) relative to HEK293-EV cells ([1]; HEK293-hSLC43A3 vs HEK293-EV): 5 fold
EC50 ([1]; HEK293-hSLC43A3, 48 h, MTT): 3.4 ± 0.9 µM
shift in EC50 (increased sensitivity) relative to HEK293-EV cells ([2]; HEK293-mslc43a3 vs HEK293-EV): 5 fold
EC50 ([2]; HEK293-mslc43a3, 48 h, MTT): 3.4 ± 1.1 µM
EC50 [3]: 16 ± 4.3 µM
effect on 6-MP uptake by ENBT1 [4]: competitively inhibits

O=c1[nH]c(=S)c2[nH]c(=O)[nH]c2[nH]1 [6-TU, 6-Thiouric acid]
effect on cell viability ([1]; HEK293-hSLC43A3, 48 h, MTT): minimal effect
effect on cell viability ([2]; HEK293-mslc43a3, 48 h, MTT): minimal effect
effect on cell viability [3]: minimal effect

B1: hENBT1 (SLC43A3-encoded human ENBT1) (Homo sapiens) (protein)
chain: MAGQGLPLHVATLLTGLLECLGFAGVLFGWPSLVFVFKNEDYFKDLCGPDAGPIGNATGQADCKAQDERFSLIFTLGSFMNNFMTFPTGYIFDRFKTTVARLIAIFFYTTATLIIAFTSAGSAVLLFLAMPMLTIGGILFLITNLQIGNLFGQHRSTIITLYNGAFDSSSAVFLIIKLLYEKGISLRASFIFISVCSTWHVARTFLLMPRGHIPYPLPPNYSYGLCPGNGTTKEEKETAEHENRELQSKEFLSAKEETPGAGQKQELRSFWSYAFSRRFAWHLVWLSVIQLWHYLFIGTLNSLLTNMAGGDMARVSTYTNAFAFTQFGVLCAPWNGLLMDRLKQKYQKEARKTGSSTLAVALCSTVPSLALTSLLCLGFALCASVPILPLQYLTFILQVISRSFLYGSNAAFLTLAFPSEHFGKLFGLVMALSAVVSLLQFPIFTLIKGSLQNDPFYVNVMFMLAILLTFFHPFLVYRECRTWKESPSAIA
notes: Oligonucleotides corresponding to the coding region of SLC43A3 (NM_001278201) or slc43a3 (NM_021398); expressed in transfected cells; HEK293-hSLC43A3
Km [5, 8]: 269 ± 67 µM
Vmax [5, 8]: 121 ± 16 pmol/µL/s
Km [6]: 93 ± 24 µM
Vmax [6]: 56 ± 6 pmol/µL/s

B2: endogenous ENBT1 expressed in MOLT-4 cells (Homo sapiens) (protein)
chain: B1 chain
Km ([5]; other: MOLT-4, 2 seconds): 115 ± 68 µM

B3: mENBT1 (slc43a3-encoded mouse ENBT1) (Mus musculus) (protein)
chain: MASKGLPLYLATLLTGLLECIGFAGVLFGWTSLLFVFKAENYFSEPCEQDCLLQSNVTGPSDLKAQDEKFSLIFTLASFMNNFMTFPTGYIFDRFKTTVARLIAIFFYTCATIIIAFTSANTAMLLFLAMPMLAVGGILFLITNLQIGNLFGKHRSTIITLYNGAFDSSSAVFLVIKLLYEQGISLRSSFIFMSVCSVWHIARTFLLMPKGHIPYPLPPNYSYGLCSRFGASKKENKAAEHETKELRSKECLPPKEENSGPEQQQQQEQQQQQQQQQEQHEQHSFRRCALSRRFILHVVWLSIIQLWHYLFIGTLNSLLTKLSGGDKVEVSAYTNAFAITQFFGVLCAPWNGLLMDRLKQKYQKAAKRTGSSSEAVALCSMVPSLALTSLLSLGFALCASIPVMQLQYATFILQVVSRSFLYGCNAAFLTLAFPSEHFGKLFGLVMALSAIVSLLQFPLFKVSPESNAVYVSMGLAIFLTLVHPFLVYRECRAEKTKSSVDA
notes: Oligonucleotides corresponding to the coding region of SLC43A3 (NM_001278201) or slc43a3 (NM_021398); expressed in transfected cells; HEK293-mslc43a3
Km [5, 9]: 253 ± 39 µM
Vmax [5, 9]: 144 ± 12 pmol/µL/s
Km [7]: 86 ± 22 µM
Vmax [7]: 62 ± 6 pmol/µL/s

B4: endogenous ENBT1 expressed in L1210 cells (Mus musculus) (protein)
chain: B3 chain
Km ([5]; other: L1210, 2 seconds): 272 ± 91 µM
